Data set [1] can be described thus: Fluorescence spectroscopy in dichloromethane. It counts as physicochemical. As to the method: Fluorescence Spectroscopy:
The fluorescence spectra of HPPH 2, purpurin-imide 4 and their corresponding carotene conjugates 3 and 6 were measured in dichloromethane. In the case of HPPH and its carotenoid analog, excitation at 660 nm gave strong emission at 670 nm. Similarly, purpurin imide and its carotenoid analog on excitation at 705 nm produced emission at 715 nm. Due to their strong fluorescence, and higher uptake in tumors, these compounds show great potential for use as diagnostic agents for malignant and non-malignant tumors.

Another data set relates to RIF tumor. Put plainly: In vivo photosensitizing activity (tumor response after laser illumination). On the set-up: species or system C3H mice. On the procedure: Preliminary In Vivo Activity:
RIF rumors were implanted subcutaneously into the axilla of 5-7 week old female C3H mice. When tumors grew to about 5 mm diameter, mice were injected with photosensitizers at various doses. The mice (6 mice/group) were restrained in aluminum holders and each tumor illuminated with 135 J/cm^2 light from a laser tuned at the longest wavelength absorption maximum of the photosensitizers. The percentage of short-term control was recorded daily.
*Six mice/group (RIF tumor). 1.0 μmol/kg, 705 nm, 135 J/cm^2 (24 h
*Six mice/group (RIF tumor). 135 J/cm^2

A short description of data set [2]: Singlet oxygen production in oxygen saturated toluene, singlet oxygen phosphorescence at 1270 nm. Particulars: for singlet oxygen production: phosphorescence at 1270 nm. Format: physicochemical. As to the method:
The carboxylic acid functionality was first activated by preparing carbodiimide analog (in situ) before condensing with amino carotene. The structure of the conjugate was confirmed by NMR and mass spectrometry. The singlet oxygen production by HPPH and its carotene conjugate was measured in oxygen saturated toluene solutions by monitoring the singlet oxygen phosphorescence at 1270 nm. […] Thus, a complete photoprotection was achieved.

Data set [3] concerns radiation induced fibrosarcoma (RIF) tumor. Put plainly: Tumor uptake by in vivo reflection spectroscopy. Further details: species or system C3H mice. The conditions noted are these: 5 micro mole/Kg; tumor vs skin fold; 3 h and 24 h post injection. As to the method: Determination of Tumor Uptake by In Vivo Reflection Spectroscopy:
The tumor uptake of the parent photosensitizer 2 (HPPH), FIG. 1, and purpurin with a fused imide ring 4, FIG. 2, were compared to the corresponding carotene conjugate 3 and 6 by in vivo reflection spectroscopy.
For these experiments, C3H mice with an axillary radiation induced fibrosarcoma (RIF) tumor were injected with the drug in an amount of 5 micro mole/Kg of body weight and the in vivo absorption specta were taken at various time intervals. FIGS. 3 and 4 respectively show the uptake of HPPH 2 and purpurin-imide 4 at 24 h post injection. FIGS. 5 and 6 show the uptake of the HPPH-carotene conjugate at 3 h and 24 h post injection.

Data set [4] in a line: Partition Coefficient (log P). It counts as physicochemical.

Molecules are shown by their SMILES.

Consider `CCCCCCOC(C)c1c(C)c2cc3nc(c4c5[nH]c(cc6nc(cc1[nH]2)C(C)=C6CC)c(C)c5C(=O)C4)[C@@H](CCC(=O)O)[C@@H]3C` (stereo partly shown) [HPPH (2), Hexyl ether analog of pyropheophorbide-a, reference compound], for which the fluorescence emission wavelength in data set [1] (excitation at 660 nm) is 670 nm. The “% TUMOR RESPONSE day 1-2” value in the data set with RIF tumor (0.47 μmol/kg, 665 nm, 24 between inj. & treatment, 135 J/cm^2, day 1-2, Table 2) turned out to be 100%. Also, in the data set on RIF tumor (0.47 μmol/kg, 665 nm, 24 between inj. & treatment, 135 J/cm^2, day 7, Table 2), the “% TUMOR RESPONSE day 7” value is 100%. Moreover, in the data set with RIF tumor (0.47 μmol/kg, 665 nm, 24 between inj. & treatment, 135 J/cm^2, day 30, Table 2), the “% TUMOR RESPONSE day 30” value was found to be 50%. Further, in the data set with RIF tumor (0.47 μmol/kg, 665 nm, 24 between inj. & treatment, 135 J/cm^2, day 90, Table 2), the “% TUMOR RESPONSE day 90” value came out at 50%. Also, in the data set with RIF tumor (0.47 umol/kg, 504 h), the “% TUMOR RESPONSE day 21” value came out at 80%. In addition, the “fluorescence yield (Φf)” value in data set [2] turned out to be 0.48. Also, in data set [2] (oxygen saturated toluene), the “singlet oxygen yield (ΦΔ)” value was found to be 0.45 and the singlet oxygen production entry is reported as “Ample production”.
Compound `CCCCCCOC(C)c1c(C)c2cc3nc(c4c5[nH]c(cc6nc(cc1[nH]2)C(C)=C6CC)c(C)c5C(=O)C4)[C@@H](CCC(=O)Nc1ccc(/C=C/C(C)=C/C=C/C(C)=C/C=C/C=C(C)/C=C/C=C(C)/C=C/C2=C(C)CCCC2(C)C)cc1)[C@@H]3C` (stereo partly shown) [HPPH-carotene (3)] displayed a fluorescence emission wavelength in data set [1] (excitation at 660 nm) of 670 nm. Further, the “tumor uptake compared to parent compound” value in data set [3] is “significant uptake of the drug in the tumor vs the skin fold”. Moreover, the “TUMOR RESPONSE (all days)” value with RIF tumor (0.47 μmol/kg, 665 nm, 24 between inj. & treatment, 135 J/cm^2, Table 2) is on record as “NO RESPONSE”. Further, the singlet oxygen production result in data set [2] (oxygen saturated toluene) was “did not produce singlet oxygen”.
For orientation: logP means the decadic logarithm of the partition coefficient of the neutral form, usually between octanol and water. As for `CCCCCCOC(C)c1c(C)c2cc3nc(c4c5[nH]c(cc6nc(cc1[nH]2)C(C)=C6CC)c(C)c5C(=O)N(CCC)C4=O)[C@@H](CCC(=O)OC)[C@@H]3C` (stereo partly shown) [Hexyl Propyl], the “Tumor Response day 7” value with RIF tumor (0.5 μmol, 705 nm, 135 J/cm^2, 24 h post injection, day 7, Table 1) was 66%. Besides, the “Tumor Response day 14” value in the data set with RIF tumor (0.5 μmol, 705 nm, 135 J/cm^2, 24 h post injection, day 14, Table 1) is 33%. Moreover, in the data set with RIF tumor (0.5 μmol, 705 nm, 135 J/cm^2, 24 h post injection, day 21, Table 1), the “Tumor Response day 21” value amounted to 17%. The “Tumor Response day 30” value in the data set on RIF tumor (0.5 μmol, 705 nm, 135 J/cm^2, 24 h post injection, day 30, Table 1) is 17%. For the same compound, the “Tumor Response day 90” value in the data set on RIF tumor (0.5 μmol, 705 nm, 135 J/cm^2, 24 h post injection, day 90, Table 1) amounted to 17%. The “Tumor Response days 1-2” value with RIF tumor (0.5 μmol, 705 nm, 135 J/cm^2, 24 h post injection, Table 1) is 100%. In data set [4], the logP worked out at 8.72.
For `CCCCCCN1C(=O)c2c3nc(cc4[nH]c(cc5nc(cc6[nH]c2c(c6C)C1=O)C(CC)=C5C)c(C(C)OC)c4C)[C@@H](C)[C@@H]3CCC(=O)OC` (stereo partly shown) [Methyl Hexyl], the lipophilicity (logP) in data set [4] turned out to be 7.72.
The same measure, in the same setting: the value for `CCCN1C(=O)c2c3nc(cc4[nH]c(cc5nc(cc6[nH]c2c(c6C)C1=O)C(CC)=C5C)c(C(C)OC)c4C)[C@@H](C)[C@@H]3CCC(=O)OC` (stereo partly shown) [Methyl Propyl] was 6.22; that for `CCCCCCN1C(=O)c2c3nc(cc4[nH]c(cc5nc(cc6[nH]c2c(c6C)C1=O)C(CC)=C5C)c(C(C)OCCC)c4C)[C@@H](C)[C@@H]3CCC(=O)OC` (stereo partly shown) [Propyl Hexyl] was 8.72; that for `CCCOC(C)c1c(C)c2cc3nc(c4c5[nH]c(cc6nc(cc1[nH]2)C(C)=C6CC)c(C)c5C(=O)N(CCC)C4=O)[C@@H](CCC(=O)OC)[C@@H]3C` (stereo partly shown) [Propyl Propyl] was 7.22.
`CCCCCCCOC(C)c1c(C)c2cc3nc(c4c5[nH]c(cc6nc(cc1[nH]2)C(C)=C6CC)c(C)c5C(=O)N(CCCCCC)C4=O)[C@@H](CCC(=O)OC)[C@@H]3C` (stereo partly shown) [Purpurin-imide (4), heptyl ether analog of N-hexyl purpurin imide] registered a fluorescence emission wavelength in data set [1] (excitation at 705 nm) of 715 nm. For the same compound, the “% TUMOR RESPONSE day 7” value in the data set with RIF tumor (1.0 μmol/kg, 705 nm, 24 between inj. & treatment, 135 J/cm^2, day 7, Table 2) stood at 100%. Also, the “% TUMOR RESPONSE day 21” value in the data set with RIF tumor (1.0 μmol/kg, 705 nm, 24 between inj. & treatment, 135 J/cm^2, day 21, Table 2) came out at 100%. In the data set on RIF tumor (1.0 μmol/kg, 705 nm, 24 between inj. & treatment, 135 J/cm^2, day 30, Table 2), the “% TUMOR RESPONSE day 30” value is given as 100%. In the data set with RIF tumor (1.0 μmol/kg, 705 nm, 24 between inj. & treatment, 135 J/cm^2, day 90, Table 2), the “% TUMOR RESPONSE day 90” value was determined as 83%. The “Tumor Response days 1-2” value with RIF tumor (1.0 μmol/kg, 705 nm, 135 J/cm^2, 24 h post injection, Table 1) is listed as 100%. Moreover, in the data set on RIF tumor (1.0 μmol/kg, 705 nm, 135 J/cm^2, day 90), the “mice tumor free on day 90” value was 5/6. Further, in the data set with RIF tumor (dose of 1.0 μmol/kg), the “in vivo activity among the compounds tested” value was “most effective”.
In turn, `CCCCCCCOC(C)c1c(C)c2cc3nc(c4c5[nH]c(cc6nc(cc1[nH]2)C(C)=C6CC)c(C)c5C(=O)N(CCCCCC)C4=O)[C@@H](CCC(=O)Nc1ccc(/C=C/C(C)=C/C=C/C(C)=C/C=C/C=C(C)/C=C/C=C(C)/C=C/C2=C(C)CCCC2(C)C)cc1)[C@@H]3C` (stereo partly shown) [Purpurin-imide-carotene (6)] displayed a fluorescence emission wavelength in data set [1] (excitation at 705 nm) of 715 nm. In addition, the “TUMOR RESPONSE (all days)” value in the data set with RIF tumor (1.0 μmol/kg, 705 nm, 24 between inj. & treatment, 135 J/cm^2, Table 2) is recorded as “NO RESPONSE”.

These data come from patent US6103751A, “Carotene analogs of porphyrins, chlorins and bacteriochlorins as therapeutic and diagnostic agents” (Health Research, Inc., priority 1998, dated 2000).
